Assays:
Assay in all cases: relative viability (nuclei count vs DMSO), 5 days (fraction); higher = more cells survive
[1] = compound: CC1=C(N=C(N=C1N)[C@H](CC(=O)N)NC[C@@H](C(=O)N)N)C(=O)N[C@@H]([C@H](C2=CN=CN2)OC3C(C(C(C(O3)CO)O)O)OC4C(C(C(C(O4)CO)O)OC(=O)N)O)C(=O)N[C@H](C)[C@H]([C@H](C)C(=O)N[C@@H]([C@@H](C)O)C(=O)NCCC5=NC(=CS5)C6=NC(=CS6)C(=O)NCCC[S+](C)C)O [Bleomycin] + COc1cc2c(Oc3ccc(NC(=O)C4(C(=O)Nc5ccc(F)cc5)CC4)cc3F)ccnc2cc1OCCCN1CCOCC1 [Foretinib] (partner 0.25 µM); settings: main component drawn
Outline: (§1)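 Relative viability equals treated-well nuclei counts divided by vehicle-well nuclei counts. Counts came from 4× images of lung cancer cell lines grown in 1536-well plates for 5 days after pin-tool dosing on the day after seeding. Dosing used one drug alone or a fixed anchor-drug dose plus five library-drug doses (not always all listed) in √10 steps, and values are medians of duplicate plates.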

[2] = compound: COc1cc([C@@H]2c3cc4c(cc3[C@@H](O[C@@H]3O[C@@H]5CO[C@@H](C)O[C@H]5[C@H](O)[C@H]3O)[C@H]3COC(=O)[C@H]23)OCO4)cc(OC)c1O [Etoposide] + COc1cccc2cc(-c3nc([C@H]4CC[C@H](C(=O)O)CC4)n4ncnc(N)c34)[nH]c12 [OSI-027] (partner 0.5 µM)
Outline: as §1

[3] = compound: COc1cc([C@@H]2c3cc4c(cc3[C@@H](O[C@@H]3O[C@@H]5CO[C@@H](C)O[C@H]5[C@H](O)[C@H]3O)[C@H]3COC(=O)[C@H]23)OCO4)cc(OC)c1O [Etoposide] + CS(=O)(=O)CCNCc1ccc(-c2ccc3ncnc(Nc4ccc(OCc5cccc(F)c5)c(Cl)c4)c3c2)o1 [Lapatinib] (partner 2 µM)
Outline: as §1

[4] = compound: COc1cc([C@@H]2c3cc4c(cc3[C@@H](O[C@@H]3O[C@@H]5CO[C@@H](C)O[C@H]5[C@H](O)[C@H]3O)[C@H]3COC(=O)[C@H]23)OCO4)cc(OC)c1O [Etoposide] + Nc1nc2[nH]cc(CCc3ccc(C(=O)N[C@@H](CCC(=O)O)C(=O)O)cc3)c2c(=O)[nH]1 [Pemetrexed] (partner 0.2 µM)
Outline: as §1

| Cell Line | relative viability ([1]; first compound 0.01 µM) | relative viability ([1]; first compound 0.03162 µM) | relative viability ([1]; first compound 0.1 µM) | relative viability ([1]; first compound 0.3162 µM) | relative viability ([1]; first compound 1 µM) | relative viability ([2]; first compound 0.01 µM) | relative viability ([2]; first compound 0.03162 µM) | relative viability ([2]; first compound 0.1 µM) | relative viability ([2]; first compound 0.3162 µM) | relative viability ([2]; first compound 1 µM) | relative viability ([3]; first compound 0.01 µM) | relative viability ([3]; first compound 0.03162 µM) | relative viability ([3]; first compound 0.1 µM) | relative viability ([3]; first compound 0.3162 µM) | relative viability ([3]; first compound 1 µM) | relative viability ([4]; first compound 0.01 µM) | relative viability ([4]; first compound 0.03162 µM) | relative viability ([4]; first compound 0.1 µM) | relative viability ([4]; first compound 0.3162 µM) | relative viability ([4]; first compound 1 µM) |
| --- | --- | --- | --- | --- | --- | --- | --- | --- | --- | --- | --- | --- | --- | --- | --- | --- | --- | --- | --- | --- |
| NCI-H1734 | 0.773 | 0.564 | 0.631 | 0.344 | 0.228 | 0.636 | 0.617 | 0.406 | 0.497 | 0.302 | 0.971 | 1.05 | 0.612 | 0.515 | 0.273 | 0.391 | 0.49 | 0.408 | 0.415 | 0.328 |
| NCI-H1755 | 0.838 | 0.976 | 0.948 | 0.638 | 0.592 | 0.69 | 0.659 | 0.609 | 0.641 | 0.585 | 1.06 | 1.13 | 1.02 | 0.988 | 0.71 | 0.468 | 0.467 | 0.519 | 0.41 | 0.428 |
| NCI-H1793 | 0.717 | 0.724 | 0.734 | 0.269 | 0.218 | 0.243 | 0.325 | – | 0.246 | 0.209 | 0.543 | 0.682 | – | 0.687 | 0.288 | – | 0.97 | 0.458 | 0.629 | 0.226 |
| NCI-H1915 | 0.929 | 0.885 | 0.763 | 0.431 | 0.257 | 0.598 | 0.637 | 0.492 | 0.572 | 0.504 | 0.907 | 1.03 | 0.913 | 0.749 | 0.524 | 0.504 | 0.516 | 0.484 | 0.474 | 0.459 |
| NCI-H1944 | 0.55 | 0.391 | 0.384 | 0.225 | 0.203 | 0.417 | 0.52 | 0.344 | 0.294 | 0.205 | 0.76 | 1.01 | 0.499 | 0.363 | 0.226 | 0.591 | 0.797 | 0.396 | 0.44 | 0.189 |
| NCI-H1975 | 0.708 | 0.582 | 0.434 | 0.191 | 0.198 | 0.733 | 0.975 | 0.594 | 0.748 | 0.27 | 0.857 | 1.04 | 0.739 | 0.528 | 0.214 | 0.285 | 0.303 | 0.31 | 0.268 | 0.223 |
| NCI-H1993 | 0.809 | 0.667 | 0.796 | 0.644 | 0.479 | 0.565 | 0.452 | 0.53 | 0.508 | 0.522 | 0.95 | 0.797 | 0.75 | 0.659 | 0.657 | – | 0.662 | 0.502 | 0.543 | 0.399 |
| NCI-H2009 | 0.775 | 1.29 | 1.25 | 0.969 | 0.639 | 0.572 | 0.659 | 0.454 | 0.539 | 0.369 | 0.885 | 1.08 | 0.856 | 0.408 | 0.247 | 0.976 | 0.957 | 1.12 | 0.703 | 0.57 |

— the supplement of paper PMC10307832
